# Laboratory results reported in patent US12662469B2 (SIRONAX LTD, priority 2018, dated 2026).
# Tested on: Cell Necrosis
# Experiment: Cell necrosis assay / cell viability assay (necrosis inhibitor activity)
# Assay type: cell-based
# Conditions: necrosis inhibitor activity; EC data for 14-191 extrapolated; read-out: EC50
row,Compound,EC50 [nM]
1,"C[C@@H]1CN(c2ncc(F)cn2)C[C@H](C)N1C(=O)N1OCC[C@H]1c1ccccc1 [Compound 110, ((2R,6S)-4-(5-fluoropyrimidin-2-yl)-2,6-dimethylpiperazin-1-yl)((S)-3-phenylisoxazolidin-2-yl)methanone]",1 to 1000
2,"N#Cc1cnc(OC2CN(C(=O)N3N=CCC3c3ccccc3)C2)s1 (stereo not drawn) [Compound 120, 2-((1-(5-phenyl-4,5-dihydro-1H-pyrazole-1-carbonyl)azetidin-3-yl)oxy)thiazole-5-carbonitrile]",1000 to 10000
3,"CN(c1ccccc1)C1CN(C(=O)N2N=CCC2c2ccccc2)C1 (stereo not drawn) [Compound 20, (3-(methyl(phenyl)amino)azetidin-1-yl)(5-phenyl-4,5-dihydro-1H-pyrazol-1-yl)methanone]",1000 to 10000
4,"C#Cc1cc(OC2CN(C(=O)N3N=CCC3c3ccccc3)C2)ncn1 (stereo not drawn) [Compound 125, (3-((6-ethynylpyrimidin-4-yl)oxy)azetidin-1-yl)(5-phenyl-4,5-dihydro-1H-pyrazol-1-yl)methanone]",1000 to 10000
5,"C[C@@H]1CN(c2ncc(F)cn2)C[C@H](C)N1C(=O)N1N=CCC1c1cccc(F)c1 (stereo partly drawn) [Compound 29, (5-(3-fluorophenyl)-4,5-dihydro-1H-pyrazol-1-yl)((2R,6S)-4-(5-fluoropyrimidin-2-yl)-2,6-dimethylpiperazin-1-yl)methanone]",1 to 1000
6,CNC(=O)c1coc(OC2CN(C(=O)N3N=CCC3c3cc(F)cc(F)c3)C2)n1 (stereo not drawn) [Compound 173],1 to 1000
7,"O=C(N1CC(Oc2cccnc2)C1)N1N=CCC1c1ccccc1 (stereo not drawn) [Compound 74, (5-phenyl-4,5-dihydro-1H-pyrazol-1-yl)(3-(pyridin-3-yloxy)azetidin-1-yl)methanone]",1 to 1000
8,"O=C(N1CC[C@@H](Oc2ncc(F)cn2)C1)N1N=CCC1c1ccccc1 (stereo partly drawn) [Compound 34, ((R)-3-((5-fluoropyrimidin-2-yl)oxy)pyrrolidin-1-yl)(5-phenyl-4,5-dihydro-1H-pyrazol-1-yl)methanone]",1000 to 10000
9,CNC(=O)c1c(F)cc(OC2CN(C(=O)N3N=CCC3c3cc(F)cc(F)c3)C2)cc1F (stereo not drawn) [Compound 160],1 to 1000
10,"N#Cc1cccc(OC2CN(C(=O)N3N=CCC3c3cc(F)cc(F)c3)C2)c1 (stereo not drawn) [Compound 71, 3-((1-(5-(3,5-difluorophenyl)-4,5-dihydro-1H-pyrazole-1-carbonyl)azetidin-3-yl)oxy)benzonitrile]",1 to 1000
11,"O=C(N1CCc2ccccc2C1)N1N=CCC1c1ccccc1 (stereo not drawn) [Compound 15, (3,4-dihydroisoquinolin-2(1H)-yl)(5-phenyl-4,5-dihydro-1H-pyrazol-1-yl)methanone]",1000 to 10000
12,"NC(=O)c1ccc(OC2CN(C(=O)N3N=CCC3c3cc(F)cc(F)c3)C2)cc1 (stereo not drawn) [Compound 130, 4-((1-(5-(3,5-difluorophenyl)-4,5-dihydro-1H-pyrazole-1-carbonyl)azetidin-3-yl)oxy)benzamide]",1 to 1000
13,NC(=O)c1cc(OC2CN(C(=O)N3N=CCC3c3cc(F)cc(F)c3)C2)ccc1F (stereo not drawn) [Compound 159],1 to 1000
14,"O=C(N1CC(Oc2ccc(F)nc2)C1)N1N=CCC1c1cc(F)cc(F)c1 (stereo not drawn) [Compound 141, (5-(3,5-difluorophenyl)-4,5-dihydro-1H-pyrazol-1-yl)(3-((6-fluoropyridin-3-yl)oxy)azetidin-1-yl)methanone]",1 to 1000
15,"O=C(N1CC(Oc2cc(F)ccc2F)C1)N1N=CCC1c1ccccc1 (stereo not drawn) [Compound 128, (3-(2,5-difluorophenoxy)azetidin-1-yl)(5-phenyl-4,5-dihydro-1H-pyrazol-1-yl)methanone]",1 to 1000
16,CNC(=O)c1nc(OC2CN(C(=O)N3N=CCC3c3cc(F)cc(F)c3)C2)sc1F (stereo not drawn) [Compound 170],1 to 1000
17,CNC(=O)c1ccc(OC2CN(C(=O)N3N=CCC3c3cc(F)cc(F)c3)C2)cc1 (stereo not drawn) [Compound 165],1 to 1000
18,"O=C(N1CC(=Cc2ccccc2F)C1)N1N=CCC1c1cc(F)cc(F)c1 (stereo not drawn) [Compound 56, (5-(3,5-difluorophenyl)-4,5-dihydro-1H-pyrazol-1-yl)(3-(2-fluorobenzylidene)azetidin-1-yl)methanone]",1 to 1000

# Same assay, conditions: necrosis inhibitor activity; compounds outside 14-191; read-out: EC50
row,Compound,EC50 [nM]
1,"COC(=O)c1cc2sc(OC3CN(C(=O)N4N=CC[C@H]4c4cc(F)cc(F)c4)C3)nc2[nH]1 [Compound 257, methyl (S)-2-((1-(5-(3,5-difluorophenyl)-4,5-dihydro-1H-pyrazole-1-carbonyl)azetidin-3-yl)oxy)-4H-pyrrolo[2,3-d]thiazole-5-carboxylate]",1 to 1000
2,"CC1CCCCN1C(=O)N1N=CCC1c1ccccc1 (stereo not drawn) [Compound 8, (2-methylpiperidin-1-yl)(5-phenyl-4,5-dihydro-1H-pyrazol-1-yl)methanone]",1000 to 10000
3,"N#Cc1cc(OC2CN(C(=O)N3N=CC[C@H]3c3cc(F)cc(F)c3)C2)c(F)cc1F [Compound 238, (S)-5-((1(5-(3,5-difluorophenyl)-4,5-dihydro-1H-pyrazole-1-carbonyl)azetidin-3-yl)oxy)-2,4-difluorobenzonitrile]",1 to 1000
4,"O=C(N1CC(=Cc2cc3[nH]c(=O)oc3cc2F)C1)N1N=CC[C@H]1c1cc(F)cc(F)c1 [Compound 372, (S)-5-((1-(5-(3,5-difluorophenyl)-4,5-dihydro-1H-pyrazole-1-carbonyl)azetidin-3-yildene)methyl)-6-fluorobenzo[d]oxazol-2(3H)-one]",1 to 1000
5,"N#Cc1cc(OC2CN(C(=O)N3N=CC[C@H]3c3cc(F)cc(F)c3)C2)ccc1F [Compound 236, (S)-5-((1-(5-(3,5-difluorophenyl)-4,5-dihydro-1H-pyrazole-1-carbonyl)azetidin-3-yl)oxy)-2-fluorobenzonitrile]",1 to 1000
6,O=C(CC1CCCC1)Nc1nc(N2CCN(C(=O)N3N=CC[C@H]3c3cc(F)cc(F)c3)CC2)ncc1F [Compound 290],1 to 1000
7,"N#Cc1cnc2ccc(N3CCN(C(=O)N4N=CC[C@H]4c4cc(F)cc(F)c4)CC3)nn12 [Compound 383, (S)-6-(4-(5-(3,5-difluorophenyl)-4,5-dihydro-1H-pyrazole-1-carbonyl)piperazin-1-yl)imidazo[1,2-b]pyridazine-3-carbonitrile]",1 to 1000
8,"O=C(N1CC(=Cc2cc(NC3CC3)ncc2F)C1)N1N=CC[C@H]1c1cc(F)cc(F)c1 [Compound 326, (S)-(3-((2-(cyclopropylamino)-5-fluoropyridin-4-yl)methylene)azetidin-1-yl)(5-(3,5-difluorophenyl)-4,5-dihydro-1H-pyrazol-1-yl)methanone]",1 to 1000
9,"O=C(N1CC(=Cc2cc3[nH]nc(F)c3cc2F)C1)N1N=CC[C@H]1c1cncc(F)c1 [Compound 322, (S)-(3-((3,5-difluoro-1H-indazol-6-yl)methylene)azetidin-1-yl)(5-(5-fluoropyridin-3-yl)-4,5-dihydro-1H-pyrazol-1-yl)methanone]",1 to 1000
10,"O=C1Cc2ccc(OC3CN(C(=O)N4N=CC[C@H]4c4cc(F)cc(F)c4)C3)cc2N1 [Compound 209, (S)-6-((1-(5-(3,5-difluorophenyl)-4,5-dihydro-1H-pyrazole-1-carbonyl)azetidin-3-yl)oxy)indolin-2-one]",1 to 1000
11,"O=C1CCc2cc(F)c(OC3CN(C(=O)N4N=CC[C@H]4c4cc(F)cc(F)c4)C3)cc2N1 [Compound 202, (S)-7-((1-(5-(3,5-difluorophenyl)-4,5-dihydro-1H-pyrazole-1-carbonyl)azetidin-3-yl)oxy)-6-fluoro-3,4-dihydroquinolin-2(1H)-one]",1 to 1000
12,"O=C(N1CC(Oc2ccc(OCc3ccccc3)nc2)C1)N1N=CCC1c1cc(F)cc(F)c1 (stereo not drawn) [Compound 211, (3-((6-(benzyloxy)pyridin-3-yl)oxy)azetidin-1-yl)(5-(3,5-difluorophenyl)-4,5-dihydro-1H-pyrazol-1-yl)methanone]",1 to 1000
13,"N#Cc1ccc(O[C@@H]2CCN(C(=O)N3N=CC[C@H]3c3cc(F)cc(F)c3)C2)cc1 [Compound 343, 4-(((R)-1-((S)-5-(3,5-difluorophenyl)-4,5-dihydro-1H-pyrazole-1-carbonyl)pyrrolidin-3-yl)oxy)benzonitrile]",1 to 1000
14,"O=C1COc2ccc(C=C3CN(C(=O)N4N=CC[C@H]4c4cc(F)cc(F)c4)C3)cc2N1 [Compound 278, 6-((1-(5-(3,5-difluorophenyl)-4,5-dihydro-1H-pyrazole-1-carbonyl)azetidin-3-ylidene)methyl)-2H-benzo[b][1,4]oxazin-3(4H)-one]",1 to 1000
15,"O=C(N1CC(Oc2ccc3ccc(=O)[nH]c3c2)C1)N1N=CCC1c1cc(F)cc(F)c1 (stereo not drawn) [Compound 204, 7-((1-(5-(3,5-difluorophenyl)-4,5-dihydro-1H-pyrazole-1-carbonyl)azetidin-3-yl)oxy)quinolin-2(1H)-one]",1 to 1000
16,"O=C(N1CC(Oc2ccc3ccc(=O)[nH]c3c2F)C1)N1N=CC[C@H]1c1cc(F)cc(F)c1 [Compound 208, (S)-7-((1(5-(3,5-difluorophenyl)-4,5-dihydro-1H-pyrazole-1-carbonyl)azetidin-3-yl)oxy)-8-fluoroquinolin-2(1H)-one]",1 to 1000
17,"N#Cc1cc(F)cc([C@@H]2CC=NN2C(=O)N2CC(Oc3cc4[nH]nc(F)c4cc3F)C2)c1 [Compound 377, (S)-3-(1-(3-((3,5-difluoro-1H-indazol-6-yl)oxy)azetidine-1-carbonyl)-4,5-dihydro-1H-pyrazol-5-yl)-5-fluorobenzonitrile]",1 to 1000
18,"O=C(N1CC(CN2Cc3cn[nH]c3C2)C1)N1N=CC[C@H]1c1cc(F)cc(F)c1 [Compound 375, (S)-(5-(3,5-difluorophenyl)-4,5-dihydro-1H-pyrazol-1-yl)(3-((4,6-dihydropyrrolo[3,4-c]pyrazol-5(1H)-yl)methyl)azetidin-1-yl)methanone]",1 to 1000
19,"O=C(N1CC(Oc2nc3ccccc3s2)C1)N1N=CCC1c1cc(F)cc(F)c1 (stereo not drawn) [Compound 276, (3-(benzo[d]thiazol-2-yloxy)azetidin-1-yl)(5-(3,5-difluorophenyl)-4,5-dihydro-1H-pyrazol-1-yl)methanone]",1 to 1000
20,N#Cc1nccc(N[C@@H]2CCN(C(=O)N3N=CC[C@H]3c3cc(F)cc(F)c3)C2)n1 [Compound 348],1 to 1000
21,O=C(N1CC(=Cc2cnc3c(F)n[nH]c3c2)C1)N1N=CC[C@H]1c1cc(F)cc(F)c1 [Compound 327],1 to 1000
